How the values were obtained:
Type in all cases: in vivo
Helicoverpa armigera = assay: Mortality test for Helicoverpa armigera (cabbage leaf dip); details: foliar, 144 h, drug solution 100 ppm, 2 instar larva, after 6 days, 25° C., 12 replications
Method: A 10% emulsifiable concentrate of the compound of the present invention (depending on the type of the compound, a 10% wettable powder was subjected to the test) was diluted with water containing a spreader to prepare a drug solution in a concentration of 100 ppm. In this drug solution, a leaf of cabbage was immersed for about 10 seconds and was air-dried and then put into a petri dish. In the petri dish, one 2 instar larva of Helicoverpa armigera per petri dish was released and the petri dish was capped and stored in a thermostatic room of 25° C. The number of killed larvae after 6 days was counted and the mortality was calculated from the same calculation formula as that in Test Example 1. Here, the test was carried out in 12 replications.

Planococcus kraunhiae = assay: Mortality test for Planococcus kraunhiae (kidney bean leaf spray); details: 144 h, drug solution 500 ppm, sprayed 2.5 mL per cup, 1 instar larvae, after 6 days, 25° C.
Method: (§1) In a styrol cup having an inner diameter of 7 cm, a wet filtration paper was laid, and on the paper, a leaf of kidney bean cut out so as to have the same diameter as the inner diameter of the cup was laid, followed by inoculating the leaf with ten 1 instar larvae of Planococcus kraunhiae per leaf. A 10% emulsifiable concentrate of the compound of the present invention (depending on the type of the compound, a 10% wettable powder was subjected to the test) was diluted with water containing a spreader to prepare a drug solution in a concentration of 500 ppm. The drug solution was sprayed using a rotary spray tower in an amount of 2.5 mL per styrol cup and the cup was capped and stored in a thermostatic room of 25° C. The number of killed larvae after 6 days was counted and the mortality was calculated from the same calculation formula as that in Test Example 1. Here, the test was carried out in two replications.

Aulacophora femoralis = assay: Mortality test for Aulacophora femoralis (cucumber leaf dip); details: foliar, 144 h, drug solution 500 ppm, 2 instar larvae, after 6 days, 25° C.
Method: (§2) A 10% emulsifiable concentrate of the compound of the present invention (depending on the type of the compound, a 10% wettable powder was subjected to the test) was diluted with water containing a spreader to prepare a drug solution in a concentration of 500 ppm. In this drug solution, a leaf of cucumber was immersed for about 10 seconds and was air-dried and then put into a petri dish. In the petri dish, five 2 instar larvae of Aulacophora femoralis per petri dish were released and the petri dish was capped and stored in a thermostatic room of 25° C. The number of killed larvae after 6 days was counted and the mortality was calculated from the same calculation formula as that in Test Example 1. Here, the test was carried out in two replications.

Plutella xylostella = assay: Mortality test for Plutella xylostella (cabbage leaf dip); details: foliar, 144 h, drug solution 100 ppm (mark *), 2 instar larvae, after 6 days, 25° C.
Method: as §2, with “[…]” for “500”, “cabbage” for “cucumber”, “Plutella xylostella” for “Aulacophora femoralis”, “following” for “same”, “formula: Mortality (%)=(number of killed insects/number of released insects)×100.” for “formula as that in Test Example 1.”

Liriomyza trifolii = assay: Mortality test for Liriomyza trifolii (kidney bean leaf dip); details: foliar, 144 h, drug solution 500 ppm, eggs on kidney bean leaf, killed larvae after 6 days, 25° C.
Method: A 10% emulsifiable concentrate of the compound of the present invention (depending on the type of the compound, a 10% wettable powder was subjected to the test) was diluted with water containing a spreader to prepare a drug solution in a concentration of 500 ppm. In this drug solution, a leaf of kidney bean which was cut out to a diameter of 7 cm, on which Liriomyza trifolii laid eggs (10 eggs/leaf) was immersed for about 10 seconds and was air-dried and then laid on a wet filtration paper laid in a styrol cup having an inner diameter of 7 cm. The styrol cup was capped and stored in a thermostatic room of 25° C. The number of killed larvae after 6 days was counted and the mortality was calculated from the same calculation formula as that in Test Example 1. Here, the test was carried out in two replications.

[1] = tested on: Frankliniella occidentalis; assay: Mortality test for Frankliniella occidentalis (kidney bean leaf spray); details: 48 h, drug solution 500 ppm, sprayed 2.5 mL per cup, 1 instar larvae, after 2 days, 25° C.
Method: as §1, with “Frankliniella occidentalis” for “Planococcus kraunhiae”, “2” for “6”

Bemisia argentifolii = assay: Mortality test for Bemisia argentifolii (tomato leaf spray); details: 144 h, drug solution 500 ppm, sprayed 2.5 mL per cup, eggs on tomato leaf, killed larvae after 6 days, 25° C.
Method: In a styrol cup having an inner diameter of 7 cm, a wet filtration paper was laid, and on the paper, a cut-out leaf of tomato on which Bemisia argentifolii laid eggs (10 eggs/leaf) was laid. A 10% emulsifiable concentrate of the compound of the present invention (depending on the type of the compound, a 10% wettable powder was subjected to the test) was diluted with water containing a spreader to prepare a drug solution in a concentration of 500 ppm. The drug solution was sprayed using a rotary spray tower in an amount of 2.5 mL per styrol cup and the cup was capped and stored in a thermostatic room of 25° C. The number of killed larvae after 6 days was counted and the mortality was calculated from the same calculation formula as that in Test Example 1. Here, the test was carried out in two replications.

Tetranychus urticae = assay: Mortality test for Tetranychus urticae (kidney bean leaf spray); details: 144 h, drug solution 500 ppm, sprayed 2.5 mL per cup, larvae, after 6 days, 25° C.
Method: as §1, with “ten” for “ten 1 instar”, “Tetranychus urticae” for “Planococcus kraunhiae”

O=C(NCc1ccc(C2=NCC(c3cc(Cl)cc(Cl)c3)(C(F)(F)F)C2)cc1Br)C1CC1 (centres unmarked) [No. 1-001, 2-bromo-N-cyclopropylcarbonyl-4-[4-(3,5-dichlorophenyl)-4-trifluoromethyl-4,5-dihydro-3H-pyrrole-2-yl] benzylamine]
≥ 80%: mortality at 100 ppm (Helicoverpa armigera)

FC(F)(F)C1(c2cc(Cl)cc(Cl)c2)CN=C(c2ccc(-n3cncn3)cc2)C1 (centres unmarked) [No. 3-001, 4-(3,5-dichlorophenyl)-2-[4-(1,2,4-triazole-1-yl)phenyl]-4-trifluoromethyl-4,5-dihydro-3H-pyrrole]
≥ 80%: mortality at 500 ppm (Planococcus kraunhiae) | mortality at 500 ppm (Aulacophora femoralis) | mortality at 100 ppm (Plutella xylostella) | mortality at 500 ppm (Liriomyza trifolii) | mortality at 500 ppm [1] | mortality at 500 ppm (Bemisia argentifolii) | mortality at 500 ppm (Tetranychus urticae)

Reference: patent US8268754B2, “Substituted dihydroazole compound and pest control agent” (Nissan Chemical Industries, Ltd., priority 2007, dated 2012)
